Values of other authors in patent US7098376B2, “Transgenic mouse expressing constitutively active hydrocarbon receptor” (InDex Pharmaceuticals AB, priority 2000, dated 2006).

Tested on: mouse models

In the case of Clc1cc2c(cc1Cl)Oc1cc(Cl)c(Cl)cc1O2 [TCDD, 2,3,7,8-tetrachlorodibenzo-p-dioxin], the “dose at which weight loss or impaired weight gain are detected” value (mice exposed to TCDD) is listed as “higher than 3 μg/kg body weight” and the “acute toxic effects (e.g. lethality or the wasting syndrome)” value (single dose of 3 μg TCDD/kg body weight, mouse models) is listed as “no acute toxic effects”.
